Where two headings read alike, the source gives them in different places. Bounds are passed on as bounds.

The conditions of data set [1]: regardless of the measured serum level of D-Ribose; cited from earlier work.
Data set [2] concerns two familial males with RLS. Kind of data set: Restless Legs Syndrome case study, oral D-ribose at three dosing regimens. Format: in vivo, human. The text has this: We present a report on two familial males with RLS in which the supplementation of D-ribose produced a benefit in lessening the occurrence and severity of their daily symptoms. Both affected male individuals were from a positive family prevalence, three generations carrying the diagnosis of RLS. These males involved the latter two generations, parent and child, respectively. Both men had no underlying medical conditions. Their symptoms of RLS date back for decades and presently have progressed to the moderate to severe discomfort stage, mainly experienced during sedentary periods throughout the day with exacerbation of symptoms during nocturnal sleep. Both individuals were introduced to D-ribose. To evaluate any potential benefits of D-ribose in RLS, each individual orally consumed D-ribose (five grams per dose) daily at different trial dosing regimens. Each trial dosing regimen lasted for three weeks with a two week interval washout between dosing regimens. The initial regimen involved a single dose of oral D-ribose consumed only at breakfast. The second dosing regimen involved consumption of oral D-ribose at breakfast and lunch. In the last dosing regiment, oral D-ribose was taken with all meals, breakfast, lunch and dinner. A diary pertaining to the documentation and severity of RLS symptoms was compiled. The two week washout period between stages was designed to observe any return or worsening of their symptoms. […] Following completion of all dosing regimens of oral D-ribose and with the final wash out period, both males elected to re-start oral dosing of D-ribose at 5 grams/doses three times a day.

In data set [3] the test system is two familial males with RLS. Conditions: oral dosage below eight grams at a time, no more often than every two hours; cited from earlier work.
The conditions of data set [4]: cited from earlier work.
Data set [5] can be described thus: Serum D-Ribose levels and half life after infusion or oral administration. The class given is in vivo, human. On the procedure: D-Ribose is found at low levels in the diet and normal serum levels are approximately 2 mg/dl. […] When infused for short periods at the concentrations of 60 mg/kg and 100 mg/kg, D-Ribose levels in the serum rose, in each case, to approximately 25 mg/dl. These doses of D-Ribose, for a 60 kilogram man, are 3.6 and 5 grams, respectively. Doses for larger or smaller size humans can be calculated based on their mass, and are typically 1 to 10 grams. […] Intravenous administration of high doses of D-Ribose can elevate the serum levels to as high as 60 mg/dl, while a further increase in dose to 222.2 mg/kg can produce a serum level as high as 86 mg/dl. See, for example, Gross et al., Klinische Wochenschrift (1991) 69:31-36.
Serum D-ribose levels should be maintained long enough to establish an effect that will persist after the serum D-ribose level is back to baseline levels. […] Typically, approximately a third of the cardiac output is used to supply energy to the brain.

[6] abbreviates: oral 5 g at breakfast and lunch, three weeks.
The mark [7] stands for this setting: oral 5 g at breakfast, lunch and dinner, three weeks.
[8] abbreviates: oral 5 g, single dose at breakfast, three weeks.

With `O=C[C@H](O)[C@H](O)[C@H](O)CO` [D-Ribose], the “decline in serum glucose, ultimate lower level” value in data set [1] is on record as 25%. Moreover, the “washout complete after ceasing D-ribose supplementation” value in data set [2] (RLS study) turned out to be 48 h. Also, the “leg twitching events and urge to move during the day” value in data set [2] (setting [6]) was “reduced for one of the subjects and rarely present in the other”. Further, the nocturnal symptoms result in data set [2] (setting [6]) was “still experienced the unpleasant sensations during the night”; in data set [2] (setting [7]) it was “of a much lesser degree and had a later occurrence”. For the same compound, the diurnal symptoms entry in data set [2] (setting [7]) was “total elimination”. The “general feeling (energy, fatigue)” value in data set [2] (setting [8]) is “more energy and less fatigue”. The “symptoms of RLS” value in data set [2] (setting [8]) is on record as “without any significant changes”. Besides, the adverse reactions result in data set [2] (oral 5 grams/dose three times a day) is given as “without any adverse reactions”. In data set [2] (re-started oral 5 grams/dose three times a day), the “severity and onset of symptoms affecting quality of life” value is reported as “substantially improved”. For the same compound, in data set [2] (washout period), the “time to return of clinical RLS symptoms after cessation of oral D-ribose” value was at most 48 h. Moreover, in data set [3], the side effects result is reported as “no side effects”. Moreover, the “normal serum levels of D-Ribose” value in data set [4] (baseline, from diet) is “approximately 2 mg/dl”. Besides, the “D-Ribose level in the serum” value in data set [4] (infused for short periods at 60 mg/kg) and in data set [4] (infused for short periods at 100 mg/kg) was “approximately 25 mg/dl” in each case. The “half life of D-Ribose in the serum” value in data set [4] (infusion 60 mg/kg) is 11 min; in data set [4] (infusion 100 mg/kg), 16 min. Also, the “serum D-Ribose level” value in data set [4] (intravenous administration of high doses) is at most 60 mg/dL; in data set [4] (intravenous, further increase in dose to 222.2 mg/kg) it was at most 86 mg/dL; in data set [4] (oral, four hours of 83.2 mg/kg per hour), 29.25 mg/dL; in data set [4] (oral, four hours of 166.7 mg/kg per hour), 35 mg/dL. Besides, the “time for serum D-Ribose levels to drop to near baseline of two mg/dl” value in data set [5] (at a 15 minute half life) is on record as “within an hour”. In data set [5] (human, serum, assumed from the above oral pharmacokinetic information), this compound came in with a half-life of 15 min.

Source of the values: patent US20090286750A1, “USE OF RIBOSE IN LESSENING THE CLINICAL SYMPTOMS OF ABERRANT FIRING OF NEURONS” (priority 2008, published 2009).
